From ChEMBL document CHEMBL1135808, “A new type of mixed anhydride and its applications to the synthesis of 7-substituted 8-chloro-5,5-dioxoimidazo[1,2-b][1,4,2]benzodithiazines with in vitro antitumor activity” (2002)

Legend:
Format in all cases: functional
Details in all cases: Homo sapiens, read-out: Log LC50 (the source's name) (converted)
CAKI-1 = test: Log of molar concentration leading to 50% cell death against renal cancer CAKI-1 cell line was reported
NCI/ADR-RES = test: Log of molar concentration leading to 50% cell death against breast cancer NCI/ADR-RES cell line was reported
A549 = test: Log of molar concentration leading to 50% cell death against non-small-cell lung cancer A 549/ATCC cell line was reported

SMILES: O=C(Nc1cccc2nsnc12)c1cc2c(cc1Cl)Sc1nccn1S2(=O)=O
- CC50 (CAKI-1): 51.3 µM
- CC50 (NCI/ADR-RES): 83.2 µM

SMILES: Cc1ccc2cccc(NC(=O)c3cc4c(cc3Cl)Sc3nccn3S4(=O)=O)c2n1
- CC50 (A549): 63.1 µM
